Consider `O=S(=O)(C(=CN=c1ccc(Br)cn1Cc1ccccc1)S(=O)(=O)c1ccccc1)c1ccccc1`, for which the melting point (commonly the temperature of the solid-liquid transition) lay within 216 to 217 °C.
`COC(=O)C1N2C(=O)C(NC(=O)COc3ccccc3)C2SCC1(C)Nc1ccccc1` (stereo not given) had a melting point of 129 to 130 °C.
The value for `CC(C)N(C)c1cc2c(cc1Cl)NC(=O)CC(c1cccc(-n3nncc3CO)c1)=N2` was 207 °C.
Take `COC(=O)C(Cc1ccc(OS(=O)(=O)C(F)(F)F)cc1)NC(=O)OCc1ccccc1` (stereo not given): the melting point is 70 to 73 °C.
`O=C1NC(=O)C(=Cc2ccc(CCSc3ccccc3)cc2)S1` had a melting point of 159 to 161 °C.
On to `Cc1cc(Br)c(S(C)(=O)=O)cc1C(=O)N=C(N)N`, for which the melting point was 207 to 208 °C.
As for `COc1ccc2sc(=Nc3ccccc3)sc2c1`, the melting point is 58 to 60 °C.
Take `O=C(NCc1ccccc1)OCc1noc(-c2ccc(CN3CCCCCC3)s2)n1`: the melting point lay in the range of 129 to 130 °C.
Consider `O=C(O)C(Cc1ccccc1)Nc1cc(-c2ccc(CCc3ccccc3)cc2)ncn1` (stereo not given), for which the melting point was 216 to 218 °C.
In the case of `O=C(O)[C@H]1CCCN1C(=O)C(F)(F)F`, the melting point lay within 48 to 51 °C.
As to `CCOC(=O)c1cnc2c(cnn2CC)c1Nc1ccccc1N`, the melting point lay within 126 to 128 °C.
In turn, `COc1cccc(CN2Cc3cc(OC)c(OCc4ccccc4)cc3C(OC)C2)c1` (stereo not given) showed a melting point of 96 to 97 °C.
Take `CN1C(=S)N(c2ccc(Cl)c(Cl)c2)C(O)C1O` (stereo not given): the melting point is 115 to 117 °C.
The compound `COc1ccc(-c2ccc(C(=O)Nc3ccc4nc(CN5C(C)(C)CCCC5(C)C)ccc4c3)cc2)cc1` had a melting point of 210 to 211 °C.
The compound `COCCn1cc(C#N)c(N)n1` showed a melting point of 105 to 107 °C.
Turning to `COc1ccc(Cl)c(N)c1C(=O)CCl`, the melting point came to 112 °C.
The value for `COC(=O)Cc1c(Cl)nc(C)nc1Cl` was 67 to 68 °C; that for `COc1ccnc(CCc2nc3cc(-c4ccc(S(=O)(=O)N5CCN(c6ccccc6)CC5)cc4)cnc3[nH]2)c1` was 218 to 220 °C; that for `CCOC(COc1ccc2c(-c3ccccc3F)noc2c1Cl)OCC` was 59 °C.
In turn, `O=c1oc(-c2ccccc2)cc(O)c1SCCc1ccccc1` displayed a melting point of 121 to 124 °C.
For `CC(C)n1c(=O)nc(N(C)C)[nH]c1=O`, the melting point is 213 to 214 °C.
In turn, `CC(C)(C)OC(=O)NCC1(O)CCN(Cc2ccccc2)CC1` gave a melting point of 109 to 112 °C.
`COc1ccc2c(c1)c(N1CCN(C)CC1)nn2S(=O)(=O)c1ccccc1`: the melting point is 165 to 167 °C.
For the compound `CCC(=O)OC1(c2ccccc2)CCN(CCN2CNC(=O)c3ccccc32)CC1`, the melting point fell in the range of 141 to 144 °C.
`COc1cc(CSC2=NCCS2)nc(N)n1` showed a melting point of 122 to 124 °C.
`Cc1ccc(-c2nc(Cl)cc(N3CCN(CCO)CC3)n2)cc1`: the melting point is 104 °C.
With `CC(C)N1CC[C@@H](Oc2ccc(-n3ccc(OCc4ccc(Cl)cn4)cc3=O)cc2)C1`, the melting point was in the range of 154 to 155 °C.
With `O=C(CCc1ccccc1)N1C(=O)OC[C@@H]1Cc1ccccc1`, the melting point lay within 92 to 95 °C.
Under `C=Cn1cc(C(=O)O)c(=O)c2c(C)c(F)c(N3CCNCC3)c(F)c21` stands 222 to 225 °C; under `NC(=O)NCc1ccc(CN(CC(=O)O)C(=O)[C@@H](CCCNC(N)=N[N+](=O)[O-])NC(=O)C(c2ccccc2)c2ccccc2)cc1`, 78 to 81 °C.
Turning to `CC(=O)c1nccc(-c2ccc(Oc3ccc(F)cc3)cc2)n1`, the melting point lay within 61 to 63 °C.
As to `CN1CCN(c2cccc3c2C[C@H](NC(=O)c2ccc(C(F)(F)F)cc2)CC3)CC1`, the melting point fell in the range of 203 to 204 °C.
For the compound `C[C@H](NC(=O)c1c[nH]c2ncc(-c3ccc(C(=O)NCc4cccc(C#N)c4)s3)nc12)C(C)(C)C`, the melting point lay within 171 to 174 °C.
The value for `CCOC(=O)N1C=CC(c2c(-c3ccccc3)nn3ccccc23)C(Cl)=N1` (stereo not given) was 130 to 132 °C; that for `O=C(NC(=O)c1ccc2ncccc2c1)NC1CCN(Cc2ccc3ccccc3c2)CC1` was 211 to 213 °C; that for `OCc1cccc(C=Cc2cccc(-c3ccsc3)c2)c1` was 79 to 81 °C.
In turn, `CCOC(=O)c1c(O)c2cccnc2n(CC)c1=O` had a melting point of 120 to 122 °C.
In turn, `CCCCc1ccc(C2(O)CN3CCC2CC3)o1` (stereo not given) came in with a melting point of 94 to 96 °C.
Under `COC(=O)c1cc(S(N)(=O)=O)c(Br)cc1C` stands 198 to 200 °C; under `CCOC(=O)CC1c2cc(OC)ccc2N(c2nc(Cl)nc3ccccc23)C1C` (stereo not given), 111 to 112 °C.
Under `O=S(=O)(Cc1cccs1)c1ncc(Br)cn1` stands 124 to 126 °C.
Compound `Oc1ccc2c(c1)OCC(c1ccccc1)C2c1ccc(OCCN2CCCCC2)cc1` (stereo not given) yielded a melting point of 168 to 170 °C.
Turning to `COC(=O)[C@H](Cc1cccc2ccccc12)NC(=O)[C@H](CC(=O)OC(C)(C)C)NC(=O)c1cccc(NC(=O)OCc2ccccc2)c1`, the melting point lay in the range of 95 to 98 °C.
Consider `CC(Cc1cc(NC(=O)NCc2ccccc2)cc2ccoc12)NC(=O)OC(C)(C)C` (stereo not given), for which the melting point lay in the range of 167 to 168 °C.
`COC(=O)c1c(-c2ccccc2)nn2ccc3c(c12)C(CC#N)CC3` (stereo not given): the melting point lay in the range of 214 to 215 °C.
Compound `C#Cc1c(N)cc(-c2ccc(Cl)c(OC)c2F)nc1C(=O)OC` came in with a melting point of 167 to 169 °C.
`CCCCNc1c(N)cc(C(=O)O)cc1S(N)(=O)=O` returned a melting point of 211 to 212 °C.
The value for `CCOC(=O)c1c(CBr)n(C)c2cc(Br)c(OC(C)=O)cc12` was 179 to 180 °C; that for `FC(F)(F)c1cccc(-c2ccnc3nccn23)c1` was 160 to 163 °C.
Turning to `CCOCc1nc2c(N)nc3ccccc3c2n1NCCC(C)C`, the melting point was 129 to 132 °C.
The value for `COC(=O)C1CCc2sccc2C1=O` (stereo not given) was 85 to 86 °C; that for `Fc1cccc(F)c1-c1cnnc(-c2ccc(-c3ccc(OC(F)(F)F)cc3)cc2)n1` was 159 to 160 °C.
Take `N#Cc1ccc(N2C[C@H](O)C[C@@H]2CO)c2ccccc12`: the melting point was 146 to 147 °C.
In turn, `CSC1=CC2=CN(SC)NN2C(SC)=N1` yielded a melting point of 165 to 167 °C.
Turning to `CC(C)CC12CCC3C4CCC(=O)C=C4CCC3C1CCC2O` (stereo not given), the melting point fell in the range of 124 to 126 °C.
`CCCc1cn2c(=O)c(C(=O)OCC)cnc2c2cc(OC)ccc12`: the melting point was 187 to 188 °C.
Under `COC1(C)CCc2c(C)c(OC(C)=O)c(C)c(C)c2O1` (stereo not given) stands 71 to 72.5 °C; under `C(=Cc1ncon1)c1ccccc1`, 82 °C.
As for `CCCCCCCCCCC1(CCCCCCCCCC)c2cc(Br)ccc2-c2ccc(-c3cccs3)cc21`, the melting point was in the range of 36.9 to 38.4 °C.
`O=c1[nH]c2ncc(-c3ccc(-c4nnc[nH]4)cc3)nc2n1CC1CCOCC1` showed a melting point of 342 to 345 °C.
Under `O=S(=O)(NCCc1ccc(C(O)CCCO)cc1)c1ccccc1Cl` (stereo not given) stands 101 °C; under `Cc1nc(-c2cnc3[nH]cc(C(=O)N[C@@H](C(=O)N4CC(C#N)C4)C(C)(C)C)c3n2)cn1-c1cccc(F)c1`, 171 to 176 °C.
In the case of `CCCOC(=O)c1cc(OC)c(OC)c(OCC)c1-c1c(C(=O)OC)cc(OC)c2c1OCO2`, the melting point is 74.5 to 76 °C.
`O=C(c1ccc(F)cc1)c1noc(CN2CCN(c3ccccc3)CC2)n1` showed a melting point of 72 to 74 °C.
`O=C1Nc2ccc(C(O)c3ccc(Cl)cc3)cc2C(c2cccc(Cl)c2)N1` (stereo not given) had a melting point of 231 °C.
Regarding `CC(C)n1nc(-c2cc(C(C)(C)C)c(O)c(C(C)(C)C)c2)c2cccnc21`, the melting point turned out to be 147 °C.
On to `CCOC(=O)C1=C(C)Nc2cc[nH]c(=O)c2C1c1ccccc1Cl` (stereo not given), for which the melting point fell in the range of 204 to 205 °C.
As for `CCN(CC)CCOc1ccc2c(=O)c3ccc(OCCN(CC)CC)cc3oc2c1`, the melting point lay within 70.5 to 72 °C.
For the compound `O=[N+]([O-])c1cc2c(Nc3ccc(F)c(Cl)c3)ncnc2cc1OCC1CC1`, the melting point stood at 204 °C.
Under `Cc1c2c(nn1Cc1ccccc1)c(N)nc1ccccc12` stands more than 250 °C.
`Cc1nnc(Cl)c(-c2c(F)cc(F)cc2F)c1-c1cccs1` displayed a melting point of 90 to 92 °C.
Turning to `O=C1NC(=S)SC1=Cc1ccc(COc2ccccc2CCc2ccccc2)cc1`, the melting point fell in the range of 162 to 163 °C.
`O=C(O)c1cn(-c2cc([N+](=O)[O-])c(F)cc2F)c2cc(F)c(F)cc2c1=O` gave a melting point of more than 270 °C.
`NS(=O)(=O)c1cccc2cncn12` gave a melting point of 148 to 151 °C.
With `O=C1C(=O)c2ccccc2C2=C1SCC(CN1CCC3(CC1)OCCO3)O2` (stereo not given), the melting point lay within 202 to 204 °C.
Consider `CS(=O)(=O)c1ccc(-n2nc(C(F)(F)F)cc2-c2ccc(-c3cccs3)cc2)cc1F`, for which the melting point was in the range of 75 to 76 °C.
For `COC[C@H]1CCCN1NC(=O)Nc1cccc2c1C(=O)c1c-2n[nH]c1-c1ccc(C(=O)N2CCN(C(=O)OC(C)(C)C)CC2)s1`, the melting point was more than 300 °C.
In turn, `CC(=O)Nc1ccc(O)cc1Cl` had a melting point of 128 to 129 °C.
The value for `CC1C(=O)N(CCO)C(=S)N1c1ccc(Oc2ccccc2)cc1` (stereo not given) was 120 °C; that for `O=C(N1CCOCC1)C1(c2onc(-c3ccc(O)cc3)c2-c2ccccc2)CC1` was 195 to 196 °C; that for `CC(C)C(=O)NCC(=O)c1ccco1` was 78 to 80 °C.
In the case of `Cn1nnnc1SCCCSc1nnnn1C`, the melting point was 142 to 144 °C.
The value for `CC(C)(C)c1nc(C(=O)c2ccccc2)nc(C(C)(C)C)c1O` was 129 to 131 °C; that for `CC(OC(=O)NCC1(CC(=O)O)CCCCC1)OC(=O)C(C)C` (stereo not given) was 63 to 64 °C.
Compound `Cc1cc2c(cc1-c1c[nH]c(C=CC(=O)O)c1)C(C)(C)CCC2(C)C` yielded a melting point of 245 to 246 °C.
As for `CSc1nc(O)cc(OC(F)F)n1`, the melting point was 236 to 237 °C.
Under `Cc1ccc2sc3cc(C(=O)Cl)ccc3c2c1` stands 127 to 128 °C; under `CCC(CC)CCOCCCCCCNCC(O)c1ccc(O)c(NS(C)(=O)=O)c1` (stereo not given), 69 to 71 °C; under `CCOC(=O)N(N)c1ccc(C)cc1`, 35 °C.
The compound `NC(=S)N1CCCCc2cccnc21` showed a melting point of 121 °C.

These data come from a melting point compilation (Tetko et al.; mined from patent text by program, amines drawn as free bases though some values may be those of a salt).
